Test results from US20220073532A1, “INHIBITORS OF CGAS ACTIVITY AS THERAPEUTIC AGENTS” (BELLBROOK LABS, LLC, priority 2019, published 2022).
Like-named read-outs stand apart in the source and are kept apart here.

Assays:
THP1 cGAS KO cells = assay: Specificity test in THP-Dual cGAS knockout cells; type: cell-based, human
Source text: FIG. 5 includes (A) a schematic showing the THP1 dual-cell reporter system: secreted luciferase reports on IRF3-driven transcription; secreted alkaline phosphatase reports on NFκB-driven transcription, both downstream of cGAS/STING. THP-Dual cGAS knockout cells are used to test for non-specific effects; (B) a plot of the dose response for inhibition of Luc expression by Compound 15; (C) a plot of the dose response for inhibition of Luc expression by the TBK1 inhibitor, BX-795; and (D) a plot of the dose response for inhibition of SEAP expression by Compound 15.
IFN induction in human monocyte cell lines: The human monocyte cell line THP-1 gives a robust cGAS/STING-dependent type I IFN response and has been used extensively for studies on the pathway. Typically, cells are stimulated by transfection with dsDNA and gene expression is assessed using an ELISA for IFNβ, a reporter gene assay, and/or cGAS/STING pathway markers such as STING phosphorylation. These assays were validated using the TBK1 inhibitor, BX-795, which acts downstream of cGAS/STING, as a probe; THP-1 Dual cells (Invivogen, San Diego) are used as the reporter cell line for routine compound testing (FIG. 5A). These assays were optimized, including equalizing responses with transfected DNA and cGAMP and comparing responses between undifferentiated cells and cells that have been differentiated to macrophages (which show little difference). […] Stimulation of THP-1 Dual cells with damage-associated molecular pattern molecules (DAMPs) that act through pattern recognition receptors other than cGAS provides another way to confirm the specificity of putative cGAS inhibitors.

cGAS = cGAS (Homo sapiens, UniProt Q8N884); assay: cGAS enzymatic assay (FP/TR-FRET detection of cGAMP); type: biochemical; parameters: The cGAS assay was used to screen 100,000 compounds with full-length human cGAS; 6xHis; made in house
Summary of the method: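 Homogeneous enzymatic assay with FP and TR-FRET read-outs, full-length enzyme at 30 nM. IC50 from dose-response under basal conditions (5 mM MgCl2, 100 μM ATP/GTP), also with 0.2 mM Mn added; values reported as letter bins from A (<100 nM) to E (>10 μM).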

cGAS, sequence (Q8N884 whole entry): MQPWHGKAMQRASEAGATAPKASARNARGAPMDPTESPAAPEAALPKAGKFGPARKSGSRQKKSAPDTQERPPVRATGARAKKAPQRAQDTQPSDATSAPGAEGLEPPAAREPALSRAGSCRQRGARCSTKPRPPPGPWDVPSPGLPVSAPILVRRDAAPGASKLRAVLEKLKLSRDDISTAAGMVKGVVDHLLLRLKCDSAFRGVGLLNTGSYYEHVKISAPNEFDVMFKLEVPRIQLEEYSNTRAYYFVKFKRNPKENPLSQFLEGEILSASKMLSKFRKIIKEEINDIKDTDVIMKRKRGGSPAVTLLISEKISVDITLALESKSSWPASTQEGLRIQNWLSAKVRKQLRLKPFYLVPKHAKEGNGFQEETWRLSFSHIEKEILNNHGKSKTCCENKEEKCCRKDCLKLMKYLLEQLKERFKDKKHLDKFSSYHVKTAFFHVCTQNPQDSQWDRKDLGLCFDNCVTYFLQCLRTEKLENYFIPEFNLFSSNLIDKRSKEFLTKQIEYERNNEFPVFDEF

Cc1nc(N2CCC[C@H]2C(=O)O)c2oc3ccccc3c2n1 [Compound 15, (2-methylbenzofuro[3,2-d]pyrimidin-4-yl)-L-proline]
effect on IRF3-driven Luc expression in THP1 cGAS KO cells stimulated with LPS (THP1 cGAS KO cells; LPS-stimulated, cGAS KO): no effect | inhibition in cGAMP-stimulated cells lacking cGAS (THP1 cGAS KO cells; cGAMP-stimulated, cGAS knockout): essentially no inhibition | IC50 (cGAS; 5 mM Mg^2+, 0.2 mM Mn^2+, read-out: IC50 (5 mM Mg^2+, 0.2 mM Mn^2+)): 10.8 ± 2.4 µM | IC50 (cGAS; 5 mM Mg^2+, read-out: IC50 (5 mM Mg^2+)): 1.26 ± 0.57 µM | IC50 (cGAS; cGAS (30 nM), with Mn^2+, read-out: Inhibition cGAS + Mn^2+): 1 to 10 µM | IC50 (cGAS; cGAS (30 nM), read-out: Inhibition cGAS): 0.5 to 1 µM | MOA (cGAS; competition with ATP): ATP Competitive
